In US9428508B2, “2,4-diamino-6,7-dihydro-5H-pyrrolo[2,3]pyrimidine derivatives as FAK/Pyk2 inhibitors” (Centaurus BioPharma Co., Ltd., priority 2011, dated 2016):

Columns and labels:
FAK = FAK (Homo sapiens (Human), UniProt Q05397); test: Biochemical assay for FAK activity (LANCE TR-FRET, ULight-poly Glu,Ala,Tyr substrate); settings: GST-tagged FAK, 120 min reaction
How it was run: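 GST-tagged FAK (2.5 nM working stock) with ULight-poly Glu,Ala,Tyr (666 nM stock) and ATP (33.3 μM stock) in Tris pH 7.5/MgCl2/DTT/CHAPS buffer with BSA, 120 min; EDTA-quenched. Phosphorylation read by TR-FRET with Eu-anti-phosphotyrosine (PY20) antibody after 60 min. Compounds tested as 12-point 3-fold dilutions.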

PYK2 = PYK2 (Homo sapiens (Human), UniProt Q14289); test: Biochemical assay for PYK2 activity (LANCE TR-FRET, ULight-poly Glu,Ala,Tyr substrate); settings: GST-tagged PYK2, 40 min reaction
How it was run: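 GST-tagged human PYK2 (2 nM working stock) with ULight-poly Glu,Ala,Tyr (1:1:1) peptide (666 nM working stock) and ATP (46.6 μM working stock) in 40 mM Tris pH 7.5, MgCl2, 1 mM DTT, 1 mM CHAPS; 40 min reaction, EDTA quench. Phosphotyrosine read by LANCE Eu-anti-phosphotyrosine (PY20) TR-FRET after 60 min; 12-point 3-fold compound dilutions.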

Chain of PYK2 (Q14289 whole entry): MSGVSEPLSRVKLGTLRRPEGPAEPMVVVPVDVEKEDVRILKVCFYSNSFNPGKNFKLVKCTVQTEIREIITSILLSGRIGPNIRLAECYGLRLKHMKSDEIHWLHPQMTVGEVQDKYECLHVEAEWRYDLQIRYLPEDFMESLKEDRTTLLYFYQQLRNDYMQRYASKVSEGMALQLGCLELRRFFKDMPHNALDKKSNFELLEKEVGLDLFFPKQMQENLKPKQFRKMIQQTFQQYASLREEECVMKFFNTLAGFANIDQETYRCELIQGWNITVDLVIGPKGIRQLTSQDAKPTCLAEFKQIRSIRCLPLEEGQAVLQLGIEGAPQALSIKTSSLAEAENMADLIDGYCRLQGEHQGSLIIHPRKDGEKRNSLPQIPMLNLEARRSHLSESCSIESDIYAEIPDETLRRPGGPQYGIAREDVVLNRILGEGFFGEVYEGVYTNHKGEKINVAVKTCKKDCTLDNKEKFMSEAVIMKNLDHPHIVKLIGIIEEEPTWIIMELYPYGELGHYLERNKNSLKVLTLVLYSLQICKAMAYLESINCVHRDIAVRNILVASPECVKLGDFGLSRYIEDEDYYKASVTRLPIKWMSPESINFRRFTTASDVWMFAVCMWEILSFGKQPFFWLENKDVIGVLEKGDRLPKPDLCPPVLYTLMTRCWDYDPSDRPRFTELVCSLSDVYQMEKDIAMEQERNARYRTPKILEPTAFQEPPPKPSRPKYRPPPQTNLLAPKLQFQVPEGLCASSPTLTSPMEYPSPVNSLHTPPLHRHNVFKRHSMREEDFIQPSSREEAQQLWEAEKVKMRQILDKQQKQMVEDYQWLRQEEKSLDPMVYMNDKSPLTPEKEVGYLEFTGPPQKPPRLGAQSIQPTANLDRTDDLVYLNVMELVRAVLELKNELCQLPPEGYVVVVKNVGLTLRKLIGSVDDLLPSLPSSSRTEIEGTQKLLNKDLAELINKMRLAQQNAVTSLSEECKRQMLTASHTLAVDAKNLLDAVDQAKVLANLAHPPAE
Chain of FAK (Q05397 whole entry): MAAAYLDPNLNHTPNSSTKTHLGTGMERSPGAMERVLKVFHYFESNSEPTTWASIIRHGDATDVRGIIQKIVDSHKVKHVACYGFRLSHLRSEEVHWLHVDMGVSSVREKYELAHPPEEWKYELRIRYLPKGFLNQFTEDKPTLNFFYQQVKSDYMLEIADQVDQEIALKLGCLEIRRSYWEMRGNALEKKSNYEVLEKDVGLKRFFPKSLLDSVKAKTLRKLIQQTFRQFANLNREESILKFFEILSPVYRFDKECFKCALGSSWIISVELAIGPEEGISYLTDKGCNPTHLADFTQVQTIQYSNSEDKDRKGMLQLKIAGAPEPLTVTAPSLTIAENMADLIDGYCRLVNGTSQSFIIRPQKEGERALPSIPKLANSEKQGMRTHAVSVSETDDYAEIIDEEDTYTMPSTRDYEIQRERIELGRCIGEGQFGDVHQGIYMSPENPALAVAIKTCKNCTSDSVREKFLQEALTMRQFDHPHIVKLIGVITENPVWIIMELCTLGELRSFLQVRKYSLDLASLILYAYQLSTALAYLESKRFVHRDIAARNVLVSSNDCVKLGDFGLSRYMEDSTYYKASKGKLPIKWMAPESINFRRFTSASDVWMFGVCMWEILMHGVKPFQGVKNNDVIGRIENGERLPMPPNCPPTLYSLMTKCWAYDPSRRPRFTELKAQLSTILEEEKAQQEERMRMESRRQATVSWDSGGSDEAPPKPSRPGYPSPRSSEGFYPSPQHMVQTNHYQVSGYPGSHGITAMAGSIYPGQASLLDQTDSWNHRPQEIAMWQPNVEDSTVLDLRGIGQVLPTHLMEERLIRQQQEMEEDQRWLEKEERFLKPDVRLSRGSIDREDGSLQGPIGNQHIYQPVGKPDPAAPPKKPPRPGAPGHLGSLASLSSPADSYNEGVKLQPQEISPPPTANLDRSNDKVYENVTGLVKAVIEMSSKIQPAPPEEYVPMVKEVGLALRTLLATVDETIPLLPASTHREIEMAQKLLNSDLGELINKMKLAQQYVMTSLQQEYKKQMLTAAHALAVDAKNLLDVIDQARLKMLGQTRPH

| Structure (SMILES) | IC50 (FAK) | IC50 (PYK2) |
| --- | --- | --- |
| CC(C)NS(=O)(=O)c1ccccc1Nc1nc(Nc2ccc(OC(F)(F)F)cc2)nc2c1CCN2 [Example 71, N-isopropyl-2-(2-(4-(trifluoromethoxy)phenylamino)-6,7-dihydro-5H-pyrrolo[2,3-d]pyrimidin-4-ylamino)benzenesulfonamide] | < 200 nM | < 100 nM |
| COc1cc(N2CCC(N3CCCCC3)CC2)ccc1Nc1nc2c(c(Nc3ccccc3S(=O)(=O)NC(C)C)n1)CCN2 [Example 92, 2-(2-(4-(1,4′-bipiperidin-1′-yl)-2-methoxyphenylamino)-6,7-dihydro-5H-pyrrolo[2,3-d]pyrimidin-4-ylamino)-N-isopropylbenzenesulfonamide] | < 20 nM | < 20 nM |
| COc1cc(N2CCOCC2)ccc1Nc1nc(NCc2ccccc2N(C)S(C)(=O)=O)c2c(n1)NCC2C (racemic) [Example 32, (±)-N-(2-((2-(2-methoxy-4-morpholinophenylamino)-5-methyl-6,7-dihydro-5H-pyrrolo[2,3-d]pyrimidin-4-ylamino)methyl)phenyl)-N-methylmethanesulfonamide] | < 20 nM | > 1000 nM |
| COc1cc(N2CCOCC2)ccc1Nc1nc2c(c(NC3CCCCC3N(C)S(C)(=O)=O)n1)C(C)(C)CN2 (stereo not shown) [Example 127, N-(2-(2-(2-methoxy-4-morpholinophenylamino)-5,5-dimethyl-6,7-dihydro-5H-pyrrolo[2,3-d]pyrimidin-4-ylamino)cyclohexyl)-N-methylmethanesulfonamide] | < 100 nM | < 100 nM |
| Cc1csc(Nc2nc3c(c(Nc4ccccc4S(=O)(=O)NC(C)C)n2)CCN3)n1 [Example 91, N-isopropyl-2-(2-(4-methylthiazol-2-ylamino)-6,7-dihydro-5H-pyrrolo[2,3-d]pyrimidin-4-ylamino)benzenesulfonamide] | > 1000 nM | < 1000 nM |
| CC(C)NS(=O)(=O)c1ccccc1Nc1nc(Nc2ccc(C(F)(F)F)cc2)nc2c1CCN2 [Example 61, N-isopropyl-2-(2-(4-(trifluoromethyl)phenylamino)-6,7-dihydro-5H-pyrrolo[2,3-d]pyrimidin-4-ylamino)benzenesulfonamide] | < 1000 nM | < 500 nM |
| CNC(=O)c1ccccc1Nc1nc(Nc2cc(C)nn2C)nc2c1C(C)(C)CN2 [Example 132, 2-(2-(1,3-dimethyl-1H-pyrazol-5-ylamino)-5,5-dimethyl-6,7-dihydro-5H-pyrrolo[2,3-d]pyrimidin-4-ylamino)-N-methylbenzamide] | < 20 nM | < 50 nM |
| Cc1cc(N2CCOCC2)ccc1Nc1nc2c(c(Nc3ccccc3S(=O)(=O)NC(C)C)n1)CCN2 [Example 66, N-isopropyl-2-(2-(2-methyl-4-morpholinophenylamino)-6,7-dihydro-5H-pyrrolo[2,3-d]pyrimidin-4-ylamino)benzenesulfonamide] | < 20 nM | < 50 nM |
| COc1cc(N2CCC(N3CCCC3)CC2)ccc1Nc1nc2c(c(Nc3ccccc3S(=O)(=O)NC(C)C)n1)CCN2 [Example 93, N-isopropyl-2-(2-(2-methoxy-4-(4-(pyrrolidin-1-yl)piperidin-1-yl)phenylamino)-6,7-dihydro-5H-pyrrolo[2,3-d]pyrimidin-4-ylamino)benzenesulfonamide] | < 20 nM | < 20 nM |
| COc1cc(N2CCOCC2)ccc1Nc1nc2c(c(Nc3ccccc3S(=O)(=O)NC3CCCC3)n1)CCN2 [Example 7, N-cyclopentyl-2-(2-(2-methoxy-4-morpholinophenylamino)-6,7-dihydro-5H-pyrrolo[2,3-d]pyrimidin-4-ylamino)benzenesulfonamide] | < 50 nM | < 100 nM |

The remaining lines, values ahead:

| IC50 (FAK) | IC50 (PYK2) | Structure (SMILES) |
| --- | --- | --- |
| < 20 nM | < 20 nM | CCNS(=O)(=O)c1ccccc1Nc1nc(Nc2ccc(N3CCOCC3)cc2OC)nc2c1C1(CC1)CN2 [Example 139, N-ethyl-2-(2′-(2-methoxy-4-morpholinophenylamino)-6′,7′-dihydrospiro[cyclopropane-1,5′-pyrrolo[2,3-d]pyrimidine]-4′-ylamino)benzenesulfonamide] |
| < 20 nM | < 50 nM | CNC(=O)c1cccc(Nc2nc3c(c(Nc4ccccc4S(=O)(=O)NC(C)C)n2)CCN3)c1 [Example 74, 3-(4-(2-(N-isopropylsulfamoyl)phenylamino)-6,7-dihydro-5H-pyrrolo[2,3-d]pyrimidin-2-ylamino)-N-methylbenzamide] |
| < 20 nM | < 20 nM | CC(C)NS(=O)(=O)c1ccccc1Nc1nc(Nc2ccc(C(=O)N(C)C)cc2)nc2c1CCN2 [Example 62, 4-(4-(2-(N-isopropylsulfamoyl)phenylamino)-6,7-dihydro-5H-pyrrolo[2,3-d]pyrimidin-2-ylamino)-N,N-dimethylbenzamide] |
| < 20 nM | < 20 nM | COc1cc(N2CCC(N(C)C)CC2)ccc1Nc1nc2c(c(Nc3ccccc3S(=O)(=O)NC(C)C)n1)CCN2 [Example 76, 2-(2-(4-(4-(dimethylamino)piperidin-1-yl)-2-methoxyphenylamino)-6,7-dihydro-5H-pyrrolo[2,3-d]pyrimidin-4-ylamino)-N-isopropylbenzenesulfonamide] |
| < 20 nM | < 20 nM | COCCCNS(=O)(=O)c1ccccc1Nc1nc(Nc2ccc(N3CCOCC3)cc2OC)nc2c1C(C)(C)CN2 [Example 114, 2-(2-(2-methoxy-4-morpholinophenylamino)-5,5-dimethyl-6,7-dihydro-5H-pyrrolo[2,3-d]pyrimidin-4-ylamino)-N-(3-methoxypropyl)benzenesulfonamide] |
| < 100 nM | < 100 nM | COCCCNS(=O)(=O)c1ccccc1Nc1nc(Nc2ccc(N3CCOCC3)cc2OC)nc2c1CCN2 [Example 48, 2-(2-(2-methoxy-4-morpholinophenylamino)-6,7-dihydro-5H-pyrrolo[2,3-d]pyrimidin-4-ylamino)-N-(3-methoxypropyl)benzenesulfonamide] |
| < 200 nM | < 500 nM | COc1cc(N2CCOCC2)ccc1Nc1nc2c(c(Nc3ccc(F)c(F)c3)n1)C1(CC1)CN2 [Example 153, N^4′-(3,4-difluorophenyl)-N^2′-(2-methoxy-4-morpholinophenyl)-6′,7′-dihydrospiro[cyclopropane-1,5′-pyrrolo[2,3-d]pyrimidine]-2′,4′-diamine] |
| < 1000 nM | < 300 nM | CNC(=O)c1ccccc1Nc1nc(Nc2cc(OC)c(OC)c(OC)c2)nc2c1CCN2 [Example 21, N-methyl-2-(2-(3,4,5-trimethoxyphenylamino)-6,7-dihydro-5H-pyrrolo[2,3-d]pyrimidin-4-ylamino)benzamide] |
| < 20 nM | < 20 nM | CNS(=O)(=O)c1ccccc1Nc1nc(Nc2cc(OC)c(OC)c(OC)c2)nc2c1C1(CC1)CN2 [Example 157, N-methyl-2-(2′-(3,4,5-trimethoxyphenylamino)-6′,7′-dihydrospiro[cyclopropane-1,5′-pyrrolo[2,3-d]pyrimidine]-4′-ylamino)benzenesulfonamide] |
| < 50 nM | < 20 nM | CNS(=O)(=O)c1ccccc1Nc1nc(Nc2ccc(N3CCOCC3)cc2OC)nc2c1C1(CC1)CN2 [Example 135, 2-(2′-(2-methoxy-4-morpholinophenylamino)-6′,7′-dihydrospiro[cyclopropane-1,5′-pyrrolo[2,3-d]pyrimidine]-4′-ylamino)-N-methylbenzenesulfonamide] |
